Like-named read-outs stand apart in the source and are kept apart here.
Key:
[1] = molecular target: T1, CA IX (Homo sapiens, UniProt Q16790); assay: biochemical
[2] = molecular target: T1, CA IX; conditions: cited from earlier work
[3] = experimental value from the library Ki (IDs A…, B…), values equal log10 of Ki in nM
[4] = library compounds with IDs A… and B…, from observed Ki (nM)
[5] = experimental value used for the QSPR model, library compounds (IDs A…, B…), equals log10 of Ki in nM
[6] = library compounds (IDs A…, B…), values equal log10 of Ki in nM, ref ChEMBL and BindingDB
[7] = observed Ki of library compounds (IDs A…, B…), ref ChEMBL and BindingDB, read-out: Ki
[8] = observed Ki of library compounds (IDs A..., B...), ref ChEMBL, BindingDB, read-out: Ki
[9] = library compounds (IDs A…, B…), observed Ki towards CA IX, ref ChEMBL and BindingDB, read-out: Ki
[10] = experimental pKi towards CA IX, library compounds, ref ChEMB database (ID A), BindingDB (ID B)
[11] = observed Ki towards CA IX, library compounds, ref ChEMB database (ID A), BindingDB (ID B), read-out: Ki
[12] = library compounds (IDs A…, B…) of Table S4, ref ChEMBL and BindingDB, read-out: Ki

Compound: NS(=O)(=O)c1ccc(NCc2cc(Br)ccc2O)cc1 [A0114]
- log10 of Ki in nM [1, 3]: 0.415

Compound: NS(=O)(=O)c1nnc(NS(=O)(=O)c2ccc(NC(=O)CCC(=O)O)cc2)s1 [A0151]
- log10 of Ki in nM [1, 3]: 0.477

Compound: NS(=O)(=O)c1ccc(CNC(=O)Cc2ccc(F)cc2)cc1 [A0160]
- log10 of Ki in nM [1, 3]: 0.491

Compound: NS(=O)(=O)c1ccc(C(=O)NNC(=O)Nc2ccc([N+](=O)[O-])cc2)cc1 [A0170]
- log10 of Ki in nM [1]: 0.505

Compound: Nc1cc(Nc2ccc(S(N)(=O)=O)cc2)nc(N)n1 [A0250]
- log10 of Ki in nM [1, 4]: 0.591

Compound: NS(=O)(=O)c1ccc(CCNCc2cc(Cl)cc(Cl)c2O)cc1 [A0260]
- log10 of Ki in nM [1, 5]: 0.613

Compound: Nc1nc(N)c2nc(CNCCc3ccc(S(N)(=O)=O)cc3)cnc2n1 [A0285]
- log10 of Ki in nM [1, 3]: 0.672

Compound: NS(=O)(=O)c1ccc(NC(=O)c2ccc(/N=C3\C(=O)Nc4ccc(F)cc43)cc2)cc1 [A0310]
- log10 of Ki in nM [1, 4]: 0.699

Compound: NS(=O)(=O)c1ccc(-n2c(S)nc3cc(F)ccc3c2=O)cc1 [A0315]
- log10 of Ki in nM [1, 5]: 0.708

Compound: Cc1cccc(Nc2nc(Cl)nc(Nc3ccc(S(N)(=O)=O)cc3)n2)c1 [A0317]
- log10 of Ki in nM [1, 5]: 0.708

Compound: NS(=O)(=O)c1ccc(CNS(=O)(=O)c2ccc(NC(=O)c3c(F)c(F)cc(F)c3F)cc2)cc1 [A0340]
- log10 of Ki in nM [1, 3]: 0.740

Compound: O=S1(=O)C=Cc2cc(-c3nnnn3-c3cccc4ccccc34)ccc2O1 [A0400]
- log10 of Ki in nM [1, 3]: 0.813

Compound: COc1ccc(C2=Nn3c(nnc3-c3ccc(S(N)(=O)=O)cc3)SC2)cc1 [A0402]
- log10 of Ki in nM [1, 3]: 0.813

Compound: CN(C)c1ccc(/N=N/c2ccc(S(N)(=O)=O)cc2)cc1 [A0408]
- log10 of Ki in nM [1, 3]: 0.820

Compound: NS(=O)(=O)c1ccc(NC(=S)N[C@@H]2O[C@H](CO)[C@H](O)[C@H](O)[C@H]2O)cc1 [A0430]
- log10 of Ki in nM [1, 3]: 0.845

Compound: NS(=O)(=O)c1ccc(OCc2ccc(F)cc2)cc1 [A0463]
- log10 of Ki in nM [1]: 0.869

Compound: CC(C)(C)OC(=O)NCCCCOc1ccc(S(N)(=O)=O)cc1 [A0486]
- log10 of Ki in nM [1, 5]: 0.886

Compound: COc1cc(OC)c(/C=C(\C#N)C(=O)Nc2ccc(S(N)(=O)=O)cc2)c(OC)c1 [A0495]
- log10 of Ki in nM [1, 3]: 0.892

Compound: Cc1ccc2c(n1)SCc1cnc(Nc3ccc(S(N)(=O)=O)cc3)nc1-2 [A0518]
- log10 of Ki in nM [1, 3]: 0.908

Compound: C#CCOc1ccc(S(N)(=O)=O)cc1 [A0523]
- log10 of Ki in nM [1, 5]: 0.914

Compound: NS(=O)(=O)c1ccc(-n2cc(/C=N/Nc3nc(-c4cc5cc(Br)ccc5oc4=O)cs3)c(-c3ccc(Cl)cc3)n2)cc1 [B0302]
- log10 of Ki in nM [2, 6]: 1.362
- Ki [2, 7]: 23 nM

Compound: CC1=C[C@H](c2ccccc2)C=C(c2ccccc2)N1c1ccc(S(=O)(=O)Nc2nnc(S(N)(=O)=O)s2)cc1 [B0314]
- log10 of Ki in nM [2, 6]: 1.380
- Ki [2, 7]: 24 nM

Compound: Cc1ccc(-c2nn(-c3ccc(S(N)(=O)=O)cc3)cc2/C=N/Nc2nc(-c3cc4cc(Cl)ccc4oc3=O)cs2)cc1 [B0318]
- log10 of Ki in nM [2]: 1.380
- Ki ([2]; read-out: Ki): 24 nM

Compound: CCOc1ccc(S(=O)(=O)NCCO)cc1-c1nnc2c(n1)c(C)nn2-c1ccc(C)cc1 [B0321]
- Ki [2, 8]: 25 nM

Compound: NS(=O)(=O)c1ccc(CNC(=S)Nc2ccc(C3c4ccc(O)cc4Oc4cc(O)ccc43)c(C(=O)O)c2)cc1 [B0334]
- Ki [2, 9]: 26 nM
- log10 of Ki in nM [2, 6]: 1.415

Compound: CCCN(CCC)S(=O)(=O)c1ccc(C(=O)N[C@H](CO)C(=O)O)cc1 [B0340]
- log10 of Ki in nM [2, 10]: 1.431
- Ki [2, 11]: 27 nM

Compound: CCCN(CCC)S(=O)(=O)c1ccc(C(=O)N[C@H](CS)C(N)=O)cc1 [B0344]
- Ki [2, 12]: 28 nM
- log10 of Ki in nM [2, 6]: 1.447

Compound: CN1N[C@@H](S(N)(=O)=O)S[C@H]1NC(=O)c1c(F)c(F)c(F)c(F)c1F [B0350]
- log10 of Ki in nM ([2]; library compounds (IDs A..., B...), values equal log10 of Ki in nM, ref ChEMBL, BindingDB): 1.462
- Ki [2, 8]: 29 nM

Compound: NS(=O)(=O)c1ccc(N[C@H]2SC[C@@H](c3ccc([N+](=O)[O-])cc3)N2C2CCCCC2)cc1 [B0353]
- Ki [2, 12]: 29 nM
- log10 of Ki in nM [2, 6]: 1.462

Compound: N#Cc1ccc(-c2cs/c(=N\c3ccc(S(N)(=O)=O)cc3)n2C2CCCCC2)cc1 [B0361]
- log10 of Ki in nM [2, 6]: 1.477
- Ki [2, 7]: 30 nM

Compound: CC1=C[C@@H](C)C(C)=C(C)N1Cc1ccc(S(N)(=O)=O)cc1 [B0397]
- log10 of Ki in nM [2, 6]: 1.544
- Ki [2, 7]: 35 nM

Compound: CC1(C)O[C@@H]2O[C@H]([C@@H]3COC(C)(C)O3)[C@@H](OS(N)(=O)=O)[C@@H]2O1 [B0417]
- log10 of Ki in nM [2]: 1.591
- Ki ([2]; read-out: Ki): 39 nM

Compound: Cc1ccc(-c2cnc(C(=O)N3CCCC3)o2)cc1S(N)(=O)=O [B0431]
- Ki [2, 8]: 43 nM

Compound: CC1C=C(C(C)C)N(Cc2ccc(S(N)(=O)=O)cc2)C(C(C)C)=C1 [B0461]
- Ki [2, 9]: 54 nM
- log10 of Ki in nM [2, 6]: 1.732

Compound: C[C@]12CC[C@H]3[C@@H]([C@H]1CCC2=O)[C@@H](O)C=C1C[C@@H](OS(N)(=O)=O)CC[C@]13C [B0490]
- Ki [2]: 65 nM
- log10 of Ki in nM [2]: 1.813

Compound: CC(=O)OC[C@@H]1O[C@H](NS(=O)(=O)NO)C=C[C@H]1OC(C)=O [B0526]
- log10 of Ki in nM [2]: 1.898
- Ki ([2]; read-out: Ki): 79 nM

Compound: NS(=O)(=O)c1ccc(CCN2C(c3ccccc3)=CCC=C2c2ccccc2)cc1 [B0533]
- log10 of Ki in nM [2, 10]: 1.908
- Ki [2, 11]: 81 nM

Compound: CC1(C)O[C@H]2[C@H](CO[C@]3(CNC(=S)Nc4ccc(S(N)(=O)=O)cc4)OC(C)(C)O[C@H]23)O1 [B0536]
- log10 of Ki in nM [2]: 1.914
- Ki ([2]; read-out: Ki): 82 nM

Compound: NS(=O)(=O)c1ccc(-n2cc(CO[C@H]3O[C@H](CO)[C@H](O[C@H]4O[C@H](CO)[C@@H](O)[C@@H](O)[C@H]4O)[C@@H](O)[C@@H]3O)nn2)cc1 [B0542]
- log10 of Ki in nM [2]: 1.924
- Ki ([2]; read-out: Ki): 84 nM

Compound: NS(=O)(=O)c1ccc(N[C@H]2SC[C@H](c3ccc(F)cc3F)N2C2CCCCC2)cc1 [B0547]
- log10 of Ki in nM [2, 6]: 1.934
- Ki [2, 7]: 86 nM

Compound: CC(=O)OC[C@@H]1O[C@@H](SCc2nnn(-c3ccc(S(N)(=O)=O)cc3)c2I)[C@H](OC(C)=O)[C@@H](OC(C)=O)[C@@H]1OC(C)=O [B0581]
- log10 of Ki in nM [2, 10]: 1.978
- Ki [2, 11]: 95 nM

Compound: NS(=O)(=O)c1ccc(CCNS(=O)(=O)[C@@H]2O[C@@H](C(=O)O)[C@@H](O)[C@@H](O)[C@@H]2O)cc1 [B0584]
- Ki [2, 12]: 96 nM
- log10 of Ki in nM [2, 6]: 1.982

Compound: CC(=O)OC[C@@H]1O[C@H](SNCCc2ccc(S(N)(=O)=O)cc2)[C@@H](OC(C)=O)[C@H](OC(C)=O)[C@@H]1OC(C)=O [B0585]
- log10 of Ki in nM [2]: 1.987
- Ki ([2]; read-out: Ki): 97 nM

Compound: CC(=O)OC[C@@H]1O[C@@H](S(=O)(=O)Cc2nnn(-c3ccc(S(N)(=O)=O)cc3)c2I)[C@H](OC(C)=O)[C@@H](OC(C)=O)[C@@H]1OC(C)=O [B0586]
- log10 of Ki in nM [2]: 1.987
- Ki ([2]; read-out: Ki): 97 nM

Compound: CC1(C)O[C@H]2[C@H](CO[C@]3(CNC(=S)Nc4ccc(S(N)(=O)=O)cc4F)OC(C)(C)O[C@H]23)O1 [B0608]
- log10 of Ki in nM [2]: 2.041
- Ki ([2]; read-out: Ki): 110 nM

Compound: NS(=O)(=O)c1ccc(-c2cn([C@H]3O[C@H](CO)[C@@H](O)[C@@H](O)[C@H]3O)nn2)cc1 [B0619]
- log10 of Ki in nM [2]: 2.079
- Ki ([2]; read-out: Ki): 120 nM

Compound: NS(=O)(=O)c1ccc(-c2cn([C@@H]3O[C@@H](CO)[C@H](O)[C@@H]3O)nn2)cc1 [B0623]
- log10 of Ki in nM [2]: 2.083
- Ki ([2]; read-out: Ki): 121 nM

Compound: CC(=O)OC[C@@H]1O[C@H](O[C@@H]2[C@@H](OC(C)=O)[C@H](OC(C)=O)[C@H](n3cc(COC(=O)c4ccc(S(N)(=O)=O)cc4)nn3)O[C@@H]2COC(C)=O)[C@H](OC(C)=O)[C@H](OC(C)=O)[C@H]1OC(C)=O [B0633]
- log10 of Ki in nM [2]: 2.114
- Ki ([2]; read-out: Ki): 130 nM

Compound: Cc1cc(=O)oc2cc(O[C@H]3O[C@@H](C)[C@H](O)[C@H](O)[C@H]3O)ccc12 [B0671]
- log10 of Ki in nM [2]: 2.303
- Ki ([2]; read-out: Ki): 201 nM

Compound: COc1cc2c(cc1OC)[C@@H](c1ccc([N+](=O)[O-])cc1)N(S(N)(=O)=O)CC2 [B0740]
- log10 of Ki in nM [2, 6]: 2.681
- Ki [2, 7]: 480 nM

Compound: CC1=CC(C)C=C(C)N1CCc1ccccc1-c1ccccc1 [B0751]
- Ki [2, 12]: 710 nM
- log10 of Ki in nM [2, 6]: 2.851

Compound: COc1ccc(/C=C\C(=O)C[C@H]2O[C@H](COC(C)=O)[C@@H](OC(C)=O)[C@@H](OC(C)=O)[C@@H]2OC(C)=O)cc1OC [B0756]
- Ki [2, 9]: 753 nM
- log10 of Ki in nM [2, 6]: 2.877

Compound: CC1=CC(C)C=C(C)N1CCc1ccccc1C [B0765]
- log10 of Ki in nM [2, 6]: 2.919
- Ki [2, 7]: 830 nM

Compound: CC(=O)Nc1ccc(S(=O)(=O)NC[C@H](C)F)cc1 [B0810]
- log10 of Ki in nM [2, 10]: 3.643
- Ki [2, 11]: 4400 nM

— publication PMC6151961 (Journal of Enzyme Inhibition and Medicinal Chemistry, 2018)
